The source made the active and inactive calls. How the calls were made is not given here.
Test system: CCRIS mutagenicity, Ames/micronucleus/aberration tests
Test: CCRIS mutagenicity studies
[1] = Test System: AMES SALMONELLA TYPHIMURIUM, Strain/Indicator: TA100, Metabolic Activation: NONE, Method: STANDARD PLATE

For `[N-]=[N+]=CC(=O)OC[C@H](N)C(=O)O`, the mutagenic call [1] was “active; positive”, the mutagenic call (Test System: E. COLI WP2, Strain/Indicator: WP2, Metabolic Activation: NONE, Method: STANDARD PLATE) was “active; positive” and the mutagenic call (Test System: UDS RAT HEPATOCYTES, Strain/Indicator: BROMODEOXYURIDINE INCORP, Metabolic Activation: NONE, Method: FLOW CYTOMETRIC ANALYSIS) was “active; positive”. The mutagenic call (Test System: UDS RAT HEPATOCYTES, Strain/Indicator: THY INCORP, Metabolic Activation: NONE, Method: AUTORADIOGRAPHY) was “active; positive”.

`CCCCCCCCCCCCOS(=O)(=O)O` was tested, and the mutagenic call (Test System: AMES SALMONELLA TYPHIMURIUM, Strain/Indicator: TA98, Metabolic Activation: HAMSTER, LIVER, S-9, AROCLOR 1254 (10%), Method: PREINCUBATION) was “inactive; negative”, the mutagenic call (Test System: AMES SALMONELLA TYPHIMURIUM, Strain/Indicator: TA98, Metabolic Activation: NONE, Method: PREINCUBATION) was “inactive; negative” and the mutagenic call (Test System: AMES SALMONELLA TYPHIMURIUM, Strain/Indicator: TA98, Metabolic Activation: RAT, LIVER, S-9, AROCLOR 1254 (10%), Method: PREINCUBATION) was “inactive; negative”. For the same molecule, the mutagenic call (Test System: AMES SALMONELLA TYPHIMURIUM, Strain/Indicator: TA100, Metabolic Activation: HAMSTER, LIVER, S-9, AROCLOR 1254 (10%), Method: PREINCUBATION) was “inactive; negative”, the mutagenic call (Test System: AMES SALMONELLA TYPHIMURIUM, Strain/Indicator: TA100, Metabolic Activation: NONE, Method: PREINCUBATION) was “inactive; negative” and the mutagenic call (Test System: AMES SALMONELLA TYPHIMURIUM, Strain/Indicator: TA100, Metabolic Activation: RAT, LIVER, S-9, AROCLOR 1254 (10%), Method: PREINCUBATION) was “inactive; negative”. The mutagenic call (Test System: AMES SALMONELLA TYPHIMURIUM, Strain/Indicator: TA1535, Metabolic Activation: HAMSTER, LIVER, S-9, AROCLOR 1254 (10%), Method: PREINCUBATION) was “inactive; negative”, the mutagenic call (Test System: AMES SALMONELLA TYPHIMURIUM, Strain/Indicator: TA1535, Metabolic Activation: NONE, Method: PREINCUBATION) was “inactive; negative” and the mutagenic call (Test System: AMES SALMONELLA TYPHIMURIUM, Strain/Indicator: TA1535, Metabolic Activation: RAT, LIVER, S-9, AROCLOR 1254 (10%), Method: PREINCUBATION) was “inactive; negative”. The mutagenic call (Test System: AMES SALMONELLA TYPHIMURIUM, Strain/Indicator: TA1537, Metabolic Activation: HAMSTER, LIVER, S-9, AROCLOR 1254 (10%), Method: PREINCUBATION) was “inactive; negative”, the mutagenic call (Test System: AMES SALMONELLA TYPHIMURIUM, Strain/Indicator: TA1537, Metabolic Activation: NONE, Method: PREINCUBATION) was “inactive; negative” and the mutagenic call (Test System: AMES SALMONELLA TYPHIMURIUM, Strain/Indicator: TA1537, Metabolic Activation: RAT, LIVER, S-9, AROCLOR 1254 (10%), Method: PREINCUBATION) was “inactive; negative”.

`CC(C)(c1ccc(O)cc1)c1ccc(O)cc1` (tested in a mixture with another compound) was tested, and the mutagenic call (End Point: IN VITRO CHROMOSOMAL ABERRATIONS, Test System: CHL CELLS, Metabolic Activation: NONE) was “active; positive (structural changes)” and the mutagenic call (End Point: IN VITRO CHROMOSOMAL ABERRATIONS, Test System: CHL CELLS, Metabolic Activation: RAT, LIVER, S-9, SODIUM PHENOBARBITAL AND 5,6-BENZOFLAVONE) was “inactive; negative; authors report equivocal results for structural changes at 0.63 and 1”.

`N[C@@H](CCC(=O)Nc1ccc([N+](=O)[O-])cc1)C(=O)O` was tested, and the mutagenic call [1] was “inactive; negative”, the mutagenic call (Test System: AMES SALMONELLA TYPHIMURIUM, Strain/Indicator: TA100, Metabolic Activation: RAT KIDNEY, MICROSOMES, Method: STANDARD PLATE) was “inactive; negative” and the mutagenic call (Test System: AMES SALMONELLA TYPHIMURIUM, Strain/Indicator: TA100, Metabolic Activation: RAT LIVER, MICROSOMES, Method: STANDARD PLATE) was “inactive; negative”.

Source: PubChem BioAssay AID1259407 (Chemical Carcinogenesis Research Information System (CCRIS), 2018)
